From patent US20230407243A1, “GENETIC PLATFORM TO INVESTIGATE THE FUNCTIONS OF BACTERIAL DRUG EFFLUX PUMPS” (priority 2022, published 2023)

Experiments:
Assay type in all cases: cell-based, Escherichia coli
EKO-35 araC::acrEF = experiment: MIC susceptibility profiling, efflux platform; conditions: for Fold change of MICs: EKO-35 araC::acrEF compared to EKO-35; for Minimum Inhibitory Concentration, EKO-35 araC::acrEF: Table 13A, non-porinated, technical duplicate
How it was run: (§1)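 Strains are grown overnight in LB at 37 °C, adjusted to OD600 ~1.0 in PBS (pH 7.4) and diluted 1/2000 into MHB II. They are incubated with twofold compound dilutions for 18 h at 37 °C. MIC comes from background-subtracted OD600.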

EKO-35 araC::acrBD408A = experiment: MIC susceptibility profiling, efflux platform; conditions: for Fold change of MICs: EKO-35 araC::acrBD408A compared to EKO-35; for Minimum Inhibitory Concentration, EKO-35 araC::acrBD408A: Table 13B, non-porinated, technical duplicate
How it was run: as §1

EKO-35 araC::mdtBC = experiment: MIC susceptibility profiling, efflux platform; conditions: for Fold change of MICs: EKO-35 araC::mdtBC compared to EKO-35; for Minimum Inhibitory Concentration, EKO-35 araC::mdtBC: Table 13B, non-porinated, technical duplicate
How it was run: as §1

EKO-35 araC::macAB Pore = experiment: MIC susceptibility profiling, porinated efflux platform; conditions: for Fold changes of MICs: EKO-35 araC::macAB Pore compared to EKO-35-Pore; for Minimum inhibitory concentration: EKO-35 araC::macAB Pore, technical duplicate
How it was run: (§2)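 MIC values come from background-corrected OD600 readings (pre-incubation OD subtracted) after 18 h at 37 °C and 900 rpm in MHB II. Compounds were tested in duplicate as 2-fold dilutions. The inoculum came from 18 h LB cultures adjusted to OD600 ~1.0 and diluted 1/2000, and the pore-bearing strains were vancomycin-checked beforehand.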

EKO-35 araC::mdtEF Pore = experiment: as above; conditions: for Fold changes of MICs: EKO-35 araC::mdtEF Pore compared to EKO-35-Pore; for Minimum inhibitory concentration, EKO-35 araC::mdtEF Pore: Table 14A, porinated, technical duplicate
How it was run: as §2

EKO-35 araC::emrKY Pore = experiment: as above; conditions: for Fold changes of MICs: EKO-35 araC::emrKY Pore compared to EKO-35-Pore; for Minimum inhibitory concentration: EKO-35 araC::emrKY Pore, technical duplicate
How it was run: as §2

EKO-35 araC::acrB Pore = experiment: as above; conditions: for Fold changes of MICs: EKO-35 araC::acr-B Pore compared to EKO-35-Pore; for Minimum inhibitory concentration, EKO-35 araC::acrB Pore: Table 14A, porinated, technical duplicate
How it was run: as §2

EKO-35 araC::acrEF Pore = experiment: as above; conditions: for Fold changes of MICs: EKO-35 araC::acrEF Pore compared to EKO-35-Pore; for Minimum inhibitory concentration, EKO-35 araC::acrEF Pore: Table 14A, porinated, technical duplicate
How it was run: as §2

EKO-35 araC::mdtBC Pore = experiment: as above; conditions: for Fold changes of MICs: EKO-35 araC::mdtBC Pore compared to EKO-35-Pore; for Minimum inhibitory concentration: EKO-35 araC::mdtBC Pore, technical duplicate
How it was run: as §2

EKO-35 araC::emrAB Pore = experiment: as above; conditions: for Fold changes of MICs: EKO-35 araC::emrAB Pore compared to EKO-35-Pore; for Minimum inhibitory concentration: EKO-35 araC::emrAB Pore, technical duplicate
How it was run: as §2

EKO-35 araC::mexCD Pore = experiment: as above; conditions: for Fold changes of MICs: EKO-35 araC::mexCD Pore compared to EKO-35-Pore; for Minimum inhibitory concentration: EKO-35 araC::mexCD Pore, technical duplicate
How it was run: as §2

EKO-35 araC::acrD Pore = experiment: as above; conditions: for Fold changes of MICs: EKO-35 araC::acrD Pore compared to EKO-35-Pore; for Minimum inhibitory concentration, EKO-35 araC::acrD Pore: Table 14A, porinated, technical duplicate
How it was run: as §2

[1] = tested on: EKO-35 araC::acrBD408A Pore; experiment: as above; conditions: for Minimum inhibitory concentration: EKO-35 araC::acrBD408A Pore, technical duplicate
How it was run: as §2

[2] = tested on: wild-type E. coli K-12 str. BW25113; experiment: microbe, parasite or virus in culture; conditions: technical duplicate; for Minimum inhibitory concentration (MIC), K-12: Table 10, without pore; for Minimum Inhibitory Concentration, K-12: Table 13A, non-porinated
How it was run: as §1

E. coli EKO-35 = experiment: microbe, parasite or virus in culture; conditions: for Fold change of MICs: EKO-35 compared to EKO-35 (reference); for Minimum inhibitory concentration (MIC), EKO-35: Table 10, without pore; for Minimum inhibitory concentration (MIC), EKO-35 / Minimum Inhibitory Concentration, EKO-35: technical duplicate; for Minimum Inhibitory Concentration, EKO-35: Table 13A, non-porinated
How it was run: as §1

E. coli ΔtolC = experiment: microbe, parasite or virus in culture; conditions: technical duplicate; for Minimum inhibitory concentration (MIC), ΔtolC: Table 10, without pore; for Minimum Inhibitory Concentration, ΔtolC: Table 13A, non-porinated
How it was run: as §1

wild-type (WT) K-12-Pore = experiment: microbe, parasite or virus in culture; conditions: technical duplicate; for Minimum inhibitory concentration (MIC), Pore K-12: Table 10, with pore; for Minimum inhibitory concentration, K-12 (WT)-Pore: Table 14A, porinated
How it was run: as §2

ΔtolC-Pore = experiment: microbe, parasite or virus in culture; conditions: technical duplicate; for Minimum inhibitory concentration (MIC), Pore ΔtolC: Table 10, with pore; for Minimum inhibitory concentration, ΔtolC-Pore: Table 14A, porinated
How it was run: as §2

EKO-35-Pore = experiment: MIC susceptibility profiling, porinated strain; conditions: for Fold changes of MICs: EKO-35-Pore compared to EKO-35-Pore (reference); for Minimum inhibitory concentration (MIC), Pore EKO-35: Table 10, with pore; for Minimum inhibitory concentration (MIC), Pore EKO-35 / Minimum inhibitory concentration, EKO-35-Pore: technical duplicate; for Minimum inhibitory concentration, EKO-35-Pore: Table 14A, porinated
How it was run: as §2

| SMILES | Fold change of MICs (EKO-35 araC::acrEF) [fold] | Minimum Inhibitory Concentration, EKO-35 araC::acrEF (EKO-35 araC::acrEF) [µg/mL] | Fold change of MICs (EKO-35 araC::acrBD408A) [fold] | Minimum Inhibitory Concentration, EKO-35 araC::acrBD408A (EKO-35 araC::acrBD408A) [µg/mL] | Fold change of MICs (EKO-35 araC::mdtBC) [fold] | Minimum Inhibitory Concentration, EKO-35 araC::mdtBC (EKO-35 araC::mdtBC) [µg/mL] | Fold changes of MICs (EKO-35 araC::macAB Pore) [fold] | Minimum inhibitory concentration (EKO-35 araC::macAB Pore) [µg/mL] | Fold changes of MICs (EKO-35 araC::mdtEF Pore) [fold] | Minimum inhibitory concentration, EKO-35 araC::mdtEF Pore (EKO-35 araC::mdtEF Pore) [µg/mL] | Fold changes of MICs (EKO-35 araC::emrKY Pore) [fold] | Minimum inhibitory concentration (EKO-35 araC::emrKY Pore) [µg/mL] | Fold changes of MICs (EKO-35 araC::acrB Pore) [fold] | Minimum inhibitory concentration, EKO-35 araC::acrB Pore (EKO-35 araC::acrB Pore) [µg/mL] | Fold changes of MICs (EKO-35 araC::acrEF Pore) [fold] | Minimum inhibitory concentration, EKO-35 araC::acrEF Pore (EKO-35 araC::acrEF Pore) [µg/mL] | Fold changes of MICs (EKO-35 araC::mdtBC Pore) [fold] | Minimum inhibitory concentration (EKO-35 araC::mdtBC Pore) [µg/mL] | Fold changes of MICs (EKO-35 araC::emrAB Pore) [fold] | Minimum inhibitory concentration (EKO-35 araC::emrAB Pore) [µg/mL] | also measured |
| --- | --- | --- | --- | --- | --- | --- | --- | --- | --- | --- | --- | --- | --- | --- | --- | --- | --- | --- | --- | --- | --- |
| O=C(Nc1ccccc1C(=O)Nc1nnc(C(F)(F)F)s1)c1ccccc1Cl [compound 19] | 1 | 320 | 1 | 320 | 1 | 320 | 1 | 320 | 1 | 320 | 1 | 320 | 1 | 320 | 1 | 320 | 1 | 320 | 1 | 320 | Fold changes of MICs (EKO-35 araC::mexCD Pore): 1 fold; Minimum inhibitory concentration (EKO-35 araC::mexCD Pore): 320 µg/mL; Fold changes of MICs (EKO-35 araC::acrD Pore): 1 fold; Minimum inhibitory concentration, EKO-35 araC::acrD Pore (EKO-35 araC::acrD Pore): 320 µg/mL; Minimum inhibitory concentration [1]: 320 µg/mL; Minimum inhibitory concentration (MIC), K-12 [2]: 320 µg/mL; Minimum Inhibitory Concentration, K-12 [2]: 320 µg/mL; Fold change of MICs (E. coli EKO-35): 1 fold; Minimum inhibitory concentration (MIC), EKO-35 (E. coli EKO-35): 320 µg/mL; Minimum Inhibitory Concentration, EKO-35 (E. coli EKO-35): 320 µg/mL; Minimum inhibitory concentration (MIC), ΔtolC (E. coli ΔtolC): 2.5 µg/mL; Minimum Inhibitory Concentration, ΔtolC (E. coli ΔtolC): 2.5 µg/mL; Minimum inhibitory concentration (MIC), Pore K-12 (wild-type (WT) K-12-Pore): 320 µg/mL; Minimum inhibitory concentration, K-12 (WT)-Pore (wild-type (WT) K-12-Pore): 320 µg/mL; Minimum inhibitory concentration (MIC), Pore ΔtolC (ΔtolC-Pore): 0.625 µg/mL; Minimum inhibitory concentration, ΔtolC-Pore (ΔtolC-Pore): 0.625 µg/mL; Fold changes of MICs (EKO-35-Pore): 1 fold; Minimum inhibitory concentration (MIC), Pore EKO-35 (EKO-35-Pore): 320 µg/mL; Minimum inhibitory concentration, EKO-35-Pore (EKO-35-Pore): 320 µg/mL |
| O=C(Nc1cccc(Oc2c(F)c(F)c(F)c(F)c2F)c1)c1ccccc1 [compound 1] | 1 | 320 | 1 | 320 | 1 | 320 | 1 | 320 | 1 | 320 | 1 | 320 | 1 | 320 | 1 | 320 | 1 | 320 | 1 | 320 | Fold changes of MICs (EKO-35 araC::mexCD Pore): 1 fold; Minimum inhibitory concentration (EKO-35 araC::mexCD Pore): 320 µg/mL; Fold changes of MICs (EKO-35 araC::acrD Pore): 1 fold; Minimum inhibitory concentration, EKO-35 araC::acrD Pore (EKO-35 araC::acrD Pore): 320 µg/mL; Fold changes of MICs ([1]; EKO-35 araC::acrBD408A Pore compared to EKO-35-Pore): 1 fold; Minimum inhibitory concentration [1]: 320 µg/mL; Minimum inhibitory concentration (MIC), K-12 [2]: 320 µg/mL; Minimum Inhibitory Concentration, K-12 [2]: 320 µg/mL; Fold change of MICs (E. coli EKO-35): 1 fold; Minimum inhibitory concentration (MIC), EKO-35 (E. coli EKO-35): 320 µg/mL; Minimum Inhibitory Concentration, EKO-35 (E. coli EKO-35): 320 µg/mL; Minimum inhibitory concentration (MIC), ΔtolC (E. coli ΔtolC): 5 µg/mL; Minimum Inhibitory Concentration, ΔtolC (E. coli ΔtolC): 5 µg/mL; Minimum inhibitory concentration (MIC), Pore K-12 (wild-type (WT) K-12-Pore): 320 µg/mL; Minimum inhibitory concentration, K-12 (WT)-Pore (wild-type (WT) K-12-Pore): 320 µg/mL; Minimum inhibitory concentration (MIC), Pore ΔtolC (ΔtolC-Pore): 10 µg/mL; Minimum inhibitory concentration, ΔtolC-Pore (ΔtolC-Pore): 10 µg/mL; Fold changes of MICs (EKO-35-Pore): 1 fold; Minimum inhibitory concentration (MIC), Pore EKO-35 (EKO-35-Pore): 320 µg/mL; Minimum inhibitory concentration, EKO-35-Pore (EKO-35-Pore): 320 µg/mL |
